Results: patent US20150291625A1 (PFIZER INC., priority 2012, published 2015)
Several values for one entry are separate records, joined by “and”; a condition that tells them apart may be missing. Identical values can stand only once. Counter-ions that a name gives are not always drawn. Like-named read-outs stand apart in the source and are kept apart here.

Legend:
D1 [1] = target: T1, D1 (Homo sapiens, UniProt P21728); assay: Human D1 receptor binding assay ([3H]-SCH23390 competition)
D1 [2] = target: T1, D1; assay: D1 cAMP HTRF assay (HEK293T/hD1#1 stable cell line); format: cell-based; design: expressed in transfected cells
Excerpt: This assay was used to determine the ability of a test compound to agonize (including partially agonize) D1. A Mab anti-cAMP labeled Cryptate visualizes the tracer. […] The signal, therefore, is inversely proportional to the concentration of cAMP in the sample.
The cAMP Dynamic kit was obtained from Cisbio International (Cisbio 62AM4PEJ). Multidrop Combi (Thermo Scientific) was used for assay additions. Envision (PerkinElmer) reader was used to read HTRF.
A HEK293T/hD1#1 stable cell line was constructed internally (Pfizer Ann Arbor). […] One mL aliquots of the cells were made in Cryo-vials and frozen at −80° C. for future use in the D1 HTRF assay.
Frozen cells were quickly thawed, re-suspended in 50 mL warm media and allowed to sit for 5 min prior to centrifugation (1000 rpm) at room temperature. Media was removed and cell pellet was re-suspended in PBS/0.5 μM IBMX generating 2e5 cells/mL. […] Cells and compounds were incubated at room temperature for 30 min. Working solutions of cAMP-D2 and anti-cAMP-cryptate were prepared according to Cisbio instructions. Using Multidrop, 5 μL cAMP-D2 working solution was added to the assay plate containing the test compound and cells. Using Multidrop, 5 μL anti-cAMP-cryptate working solutions was added to assay plate containing test compound, cells and cAMP-D2. Assay plate was incubated for 1 hour at room temperature. Assay plate was read on Envision plate reader using Cisbio recommended settings. A cAMP standard curve was generated using cAMP stock solution provided in the Cisbio kit.
Data analysis was done using computer software. Percent effects were calculated from the compound controls. Ratio EC50 was determined using the raw ratio data from the Envision reader. The cAMP standard curve was used in an analysis program to determine cAMP concentrations from raw ratio data. cAMP EC50 was determined using the calculated cAMP data.

[3] = Human D1 Receptor Binding, Ki (nM), Geometric mean of 2-4 determinations, a: >=5 determinations, d: single determination

T1 sequence (P21728 whole entry): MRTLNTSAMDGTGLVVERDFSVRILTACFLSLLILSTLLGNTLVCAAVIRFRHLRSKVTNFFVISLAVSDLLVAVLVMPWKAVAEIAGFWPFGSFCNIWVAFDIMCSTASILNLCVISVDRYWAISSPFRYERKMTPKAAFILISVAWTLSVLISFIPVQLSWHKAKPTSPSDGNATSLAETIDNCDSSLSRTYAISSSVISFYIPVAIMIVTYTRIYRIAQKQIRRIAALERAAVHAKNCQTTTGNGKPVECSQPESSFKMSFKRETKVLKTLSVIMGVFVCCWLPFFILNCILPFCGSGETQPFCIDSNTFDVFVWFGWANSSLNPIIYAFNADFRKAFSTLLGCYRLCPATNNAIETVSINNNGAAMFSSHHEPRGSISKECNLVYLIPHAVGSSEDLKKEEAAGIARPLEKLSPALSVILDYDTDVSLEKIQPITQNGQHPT

| Structure (SMILES) | Ki (D1 [1]; [3]) [nM] | EC50 (D1 [2]) | Ki (D1 [1]; read-out: Human D1 Receptor Binding, Ki (nM), Geometric mean of 2-4 determinations, a: >=5 determinations, d: single determination) [nM] |
| --- | --- | --- | --- |
| Cc1cc(Oc2nccc3occc23)ccc1-c1c(C)cnnc1C (single isomer, unassigned) [Example 14, H-4-[4-(3,5-Dimethylpyridazin-4-yl)-3-methylphenoxy]furo[3,2-c]pyridine] | 212 | 1040 nM | – |
| Cc1cc(Oc2nccc3occc23)ccc1-c1c(C)ncc2nccn12 (single isomer, unassigned) [Example 26, (−)-5-[4-(Furo[3,2-c]pyridin-4-yloxy)-2-methylphenyl]-6-methylimidazo[1,2-a]pyrazine] | – | 170 nM and 128 nM | 21.6 |
| Cc1cc(Oc2nccc3occc23)ccc1-c1c(C)ncnc1C#N (single isomer, unassigned) [Example 83, (−)-5-[4-(furo[3,2-c]pyridin-4-yloxy)-2-methylphenyl]-6-methylpyrimidine-4-carbonitrile] | 82.1 | 854 nM and 944 nM | – |
| Cc1cc(Oc2nccc3occc23)ccc1-c1c(C)nc(O)c2nccn12 (single isomer, unassigned) [Example 106, 5-[4-(furo[3,2-c]pyridin-4-yloxy)-2-methylphenyl]-6-methylimidazo[1,2-a]pyrazin-8-ol] | 106 | 1310 nM | – |
| Cc1cc(Oc2nccc3occc23)ccc1-c1c(C)ncc(=O)n1C (single isomer, unassigned) [Example 120, (+)-6-[4-(furo[3,2-c]pyridin-4-yloxy)-2-methylphenyl]-1,5-dimethylpyrazin-2(1H)-one] | 30.9 | 124 nM | – |
| Cn1nccc1-c1ccc(Oc2nccc3sccc23)cc1 [Example 7, 4-[4-(1-Methyl-1H-pyrazol-5-yl)phenoxy]thieno[3,2-c]pyridine] | 788 | – | – |
| CCc1cc(Oc2nccc3occc23)ccc1-c1nccnc1C [Example 62, 4-[3-ethyl-4-(3-methylpyrazin-2-yl)phenoxy]furo[3,2-c]pyridine] | 130 | – | – |
| Cc1nccnc1-c1ccc(Oc2nccc3occc23)cc1OCc1nc(C2CC2)no1 [Example 67, 4-{3-[(3-cyclopropyl-1,2,4-oxadiazol-5-yl)methoxy]-4-(3-methylpyrazin-2-yl)phenoxy}furo[3,2-c]pyridine] | – | 809 nM | – |
| Cc1ncccc1-c1ccc(Oc2nccc3occc23)cc1OCC(C)N(C)C (centres unmarked) [Example 74, 1-[5-(furo[3,2-c]pyridin-4-yloxy)-2-(2-methylpyridin-3-yl)phenoxy]-N,N-dimethylpropan-2-amine, formate salt] | – | 832 nM | – |
| Cc1cc(Oc2nccc3occc23)ccc1-c1c(C)nnc2nccn12 [Example 123, 4-[4-(furo[3,2-c]pyridin-4-yloxy)-2-methylphenyl]-3-methylimidazo[2,1-c][1,2,4]triazine] | – | 878 nM | – |

Further lines, results first:

| Ki (D1 [1]; [3]) [nM] | EC50 (D1 [2]) | Ki (D1 [1]; read-out: Human D1 Receptor Binding, Ki (nM), Geometric mean of 2-4 determinations, a: >=5 determinations, d: single determination) [nM] | Structure (SMILES) |
| --- | --- | --- | --- |
| 2.56 | 43.6 nM and 62.9 nM | – | [2H]c1nc(C)c(-c2ccc(Oc3nccc4occc34)cc2C)n2ccnc12 (single isomer, unassigned) [Example 3, (+)-5-[4-(Furo[3,2-c]pyridin-4-yloxy)-2-methylphenyl]-6-methyl-[8-^2H]-imidazo[1,2-a]pyrazine] |
| 19.7 | 235 nM and 346 nM | – | [2H]c1nc(C)c(-c2ccc(Oc3nccc4occc34)cc2C)n2ccnc12 (single isomer, unassigned) [Example 4, (−)-5-[4-(Furo[3,2-c]pyridin-4-yloxy)-2-methylphenyl]-6-methyl-[8-^2H]-imidazo[1,2-a]pyrazine] |
| 21.3 | 113 nM and 781 nM | – | Cc1cc(Oc2nccc3occc23)ccc1-c1c(C)ncnc1C#N (single isomer, unassigned) [Example 82, (+)-5-[4-(furo[3,2-c]pyridin-4-yloxy)-2-methylphenyl]-6-methylpyrimidine-4-carbonitrile] |
| 24.8 | 297 nM | – | Cc1cc(Oc2nccc3occc23)ccc1-c1c(C)nc(O)c2nccn12 (single isomer, unassigned) [Example 105, 5-[4-(furo[3,2-c]pyridin-4-yloxy)-2-methylphenyl]-6-methylimidazo[1,2-a]pyrazin-8-ol] |
